Records with an inconclusive call do not appear.
Tested on: BDF1 mice, B16 melanoma s.c., survival/tumor T/C
Experiment: NCI In Vivo Anticancer Drug Screen. Data for tumor model B16 Melanoma (subcutaneous) in B6D2F1 (BDF1) mice
Method: The antitumor activity of compounds was measured in mice bearing transplantable tumors. Survival or tumor size were measured and the results are expressed as the measurement made in the treated group (T) divided by the measurement made in the vehicle treated control group (C). The tumor model used in this assay is B16 Melanoma (subcutaneous) in B6D2F1 (BDF1) mice

[1] = endpoint: median survival time, dose: 0.5 mg/kg/injection, schedule: Q01DX009 (ip), vehicle: Klucel (hydroxypropylcellulose) (HPC), higher = longer survival

**Q.** What does the source list for CC(=O)O[C@H]1C(=O)[C@@]2(C)[C@H]([C@H](OC(=O)c3ccccc3)[C@]3(O)C[C@H](OC(=O)[C@H](O)[C@@H](NC(=O)c4ccccc4)c4ccccc4)C(C)=C1C3(C)C)[C@]1(OC(C)=O)CO[C@@H]1C[C@@H]2O?
**A.** T/C (endpoint: median survival time, dose: 1.32 mg/kg/injection, schedule: Q01DX009 (ip), vehicle: Klucel (hydroxypropylcellulose) (HPC), higher = longer survival): 91 % of control; T/C (endpoint: median survival time, dose: 1.32 mg/kg/injection, schedule: Q01DX009 (ip), vehicle: other, higher = longer survival): 100 % of control; T/C (endpoint: median survival time, dose: 1.98 mg/kg/injection, schedule: Q01DX009 (ip), vehicle: Klucel (hydroxypropylcellulose) (HPC), higher = longer survival): 95 % of control; T/C (endpoint: median survival time, dose: 1.98 mg/kg/injection, schedule: Q01DX009 (ip), vehicle: other, higher = longer survival): 88 % of control; T/C (endpoint: median survival time, dose: 2.96 mg/kg/injection, schedule: Q01DX009 (ip), vehicle: Klucel (hydroxypropylcellulose) (HPC), higher = longer survival): 116 % of control; T/C (endpoint: median survival time, dose: 2.96 mg/kg/injection, schedule: Q01DX009 (ip), vehicle: other, higher = longer survival): 88 % of control; T/C (endpoint: median survival time, dose: 4.0 mg/kg/injection, schedule: Q01DX009 (ip), vehicle: Klucel (hydroxypropylcellulose) (HPC), higher = longer survival): 93 % of control; T/C (endpoint: median survival time, dose: 4.44 mg/kg/injection, schedule: Q01DX009 (ip), vehicle: other, higher = longer survival): 123 % of control; T/C (endpoint: median survival time, dose: 6.0 mg/kg/injection, schedule: Q01DX009 (ip), vehicle: Klucel (hydroxypropylcellulose) (HPC), higher = longer survival): 97 % of control; T/C (endpoint: median survival time, dose: 6.67 mg/kg/injection, schedule: Q01DX009 (ip), vehicle: Klucel (hydroxypropylcellulose) (HPC), higher = longer survival): 117 % of control; T/C (endpoint: median survival time, dose: 9.0 mg/kg/injection, schedule: Q01DX009 (ip), vehicle: Klucel (hydroxypropylcellulose) (HPC), higher = longer survival): 93 % of control; T/C (endpoint: median survival time, dose: 11.0 mg/kg/injection, schedule: Q04DX003 (ip), vehicle: Klucel (hydroxypropylcellulose) (HPC), higher = longer survival): 102 % of control; T/C (endpoint: median survival time, dose: 13.0 mg/kg/injection, schedule: Q01DX001 (ip), vehicle: Klucel (hydroxypropylcellulose) (HPC), higher = longer survival): 97 % of control; T/C (endpoint: median survival time, dose: 16.0 mg/kg/injection, schedule: Q04DX003 (ip), vehicle: Klucel (hydroxypropylcellulose) (HPC), higher = longer survival): 91 % of control; T/C (endpoint: median survival time, dose: 20.0 mg/kg/injection, schedule: Q01DX001 (ip), vehicle: Klucel (hydroxypropylcellulose) (HPC), higher = longer survival): 122 % of control; T/C (endpoint: median survival time, dose: 24.0 mg/kg/injection, schedule: Q04DX003 (ip), vehicle: Klucel (hydroxypropylcellulose) (HPC), higher = longer survival): 93 % of control; T/C (endpoint: median survival time, dose: 30.0 mg/kg/injection, schedule: Q01DX001 (ip), vehicle: Klucel (hydroxypropylcellulose) (HPC), higher = longer survival): 106 % of control

**Q.** What does the source list for Nc1ncnc2c1ccn2C1OC(CO)C(O)C1O (stereo unspecified)?
**A.** T/C (endpoint: median survival time, dose: 0.25 mg/kg/injection, schedule: Q01DX009 (ip), vehicle: saline, higher = longer survival): 111 % of control; T/C [1]: 106 % of control; T/C (endpoint: median survival time, dose: 0.5 mg/kg/injection, schedule: Q01DX009 (ip), vehicle: saline, higher = longer survival): 106 % of control; T/C (endpoint: median survival time, dose: 1.0 mg/kg/injection, schedule: Q01DX009 (ip), vehicle: Klucel (hydroxypropylcellulose) (HPC), higher = longer survival): 110 % of control; T/C (endpoint: median survival time, dose: 1.0 mg/kg/injection, schedule: Q01DX009 (ip), vehicle: saline, higher = longer survival): 99 % of control

**Q.** With COc1ccc(C[C@H](N)C(=O)NC2C(CO)OC(n3cnc4c(N(C)C)ncnc43)C2O)cc1 (stereo partly specified) as the compound, how does the T/C (endpoint: median survival time, dose: 8.0 mg/kg/injection, schedule: Q01DX009 (ip), vehicle: saline, higher = longer survival) read?
**A.** The T/C was 151 % of control.

**Q.** And the T/C (endpoint: median survival time, dose: 16.0 mg/kg/injection, schedule: Q01DX009 (ip), vehicle: saline, higher = longer survival)?
**A.** Its T/C is 96 % of control.

**Q.** And the T/C (endpoint: median survival time, dose: 32.0 mg/kg/injection, schedule: Q01DX009 (ip), vehicle: saline, higher = longer survival)?
**A.** Its T/C is 107 % of control.

**Q.** How did the T/C (endpoint: median survival time, dose: 1.56 mg/kg/injection, schedule: Q01DX009 (ip), vehicle: water, higher = longer survival) turn out when Cc1c(N)nc(C(CC(N)=O)NCC(N)C(N)=O)nc1C(=O)NC(C(=O)NC(C)C(O)C(C)C(=O)NC(C(=O)NCCc1nc(-c2nc(C(=O)NCCCNCCCCN)cs2)cs1)C(C)O)C(OC1OC(CO)C(O)C(O)C1OC1OC(CO)C(O)C(OC(N)=O)C1O)c1cnc[nH]1 (stereo unspecified) was run?
**A.** Its T/C is 164 % of control.

**Q.** And the T/C (endpoint: median tumor weight (est.), dose: 1.56 mg/kg/injection, schedule: Q01DX009 (ip), vehicle: water, higher = larger tumour)?
**A.** Its T/C is 41 % of control.

**Q.** What about the T/C (endpoint: median tumor weight (est.), dose: 3.12 mg/kg/injection, schedule: Q01DX009 (ip), vehicle: water, higher = larger tumour) of the same compound?
**A.** The T/C was 24 % of control.

**Q.** And the T/C (endpoint: median tumor weight (est.), dose: 6.25 mg/kg/injection, schedule: Q01DX009 (ip), vehicle: water, higher = larger tumour)?
**A.** The T/C was 12 % of control.

**Q.** What does the source list for CO[C@@]12[C@H](COC(N)=O)C3=C(C(=O)C(C)=C(N)C3=O)N1C[C@@H]1N[C@@H]12?
**A.** T/C (endpoint: median survival time, dose: 0.25 mg/kg/injection, schedule: Q01DX009 (ip), vehicle: Klucel (hydroxypropylcellulose) (HPC), higher = longer survival): 95 % of control; T/C [1]: 110 % of control; T/C (endpoint: median survival time, dose: 2.0 mg/kg/injection, schedule: Q01DX009 (ip), vehicle: Klucel (hydroxypropylcellulose) (HPC), higher = longer survival): 154 % of control; T/C (endpoint: median tumor weight (est.), dose: 0.25 mg/kg/injection, schedule: Q01DX009 (ip), vehicle: saline, higher = larger tumour): 77 % of control; T/C (endpoint: median tumor weight (est.), dose: 0.5 mg/kg/injection, schedule: Q01DX009 (ip), vehicle: saline, higher = larger tumour): 101 % of control; T/C (endpoint: median tumor weight (est.), dose: 1.0 mg/kg/injection, schedule: Q01DX009 (ip), vehicle: saline, higher = larger tumour): 70 % of control; T/C (endpoint: median tumor weight (est.), dose: 2.0 mg/kg/injection, schedule: Q01DX009 (ip), vehicle: saline, higher = larger tumour): 30 % of control

Source: PubChem BioAssay AID194 (DTP/NCI, 2004)
